Series [1] addresses T1, 5-LO in bovine PMNL (Bos taurus, UniProt F1MQ78).
T1 construct: endogenous in cells; host or cells: polymorphonuclear leukocytes isolated from bovine blood
T1 sequence (F1MQ78 1-674): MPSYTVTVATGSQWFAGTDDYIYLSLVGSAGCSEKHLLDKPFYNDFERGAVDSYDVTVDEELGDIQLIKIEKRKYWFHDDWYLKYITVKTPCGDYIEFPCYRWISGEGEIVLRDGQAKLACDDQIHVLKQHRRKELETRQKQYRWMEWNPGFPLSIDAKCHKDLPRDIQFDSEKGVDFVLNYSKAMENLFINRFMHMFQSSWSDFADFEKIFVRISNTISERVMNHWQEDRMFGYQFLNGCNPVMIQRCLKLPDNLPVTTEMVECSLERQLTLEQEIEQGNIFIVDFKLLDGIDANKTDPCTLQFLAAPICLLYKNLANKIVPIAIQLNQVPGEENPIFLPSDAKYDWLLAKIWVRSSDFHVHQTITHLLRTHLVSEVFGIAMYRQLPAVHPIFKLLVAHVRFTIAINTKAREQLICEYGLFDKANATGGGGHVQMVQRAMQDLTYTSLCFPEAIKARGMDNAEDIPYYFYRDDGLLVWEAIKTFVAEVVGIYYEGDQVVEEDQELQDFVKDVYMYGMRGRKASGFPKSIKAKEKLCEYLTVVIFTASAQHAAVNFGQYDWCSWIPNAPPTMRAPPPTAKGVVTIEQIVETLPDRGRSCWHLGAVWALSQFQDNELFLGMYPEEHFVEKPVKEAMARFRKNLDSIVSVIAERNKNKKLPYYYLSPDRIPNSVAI
Description: Bovine PMNL 5-lipoxygenase assay (inhibition of 5-HETE and LTB4 biosynthesis). The series is classed as cell-based.

The test system of series [2] is HaCaT cells. Put plainly: LDH release in HaCaT cells. It counts as cell-based. From the text:
(§1) The biological assay methods were as follows: LDH release as described in Muller K, Huang H-S, Wiegrebe W, J. Med. Chem. 39, 3132-3138 (1996); bovine PMNL 5-LO assay as described in Muller K, Gurster D, Piwek S, Wiegrebe W, J. Med. Chem. 36, 4099-4107 (1993); and degradation of 2-deoxy-D-ribose as described in Muller K, Gurster D, Biochem. Pharmacol. 46, 1695-1704 (1993). HaCaT keratinocyte proliferation assay was generally described in Muller K, Leukel P, Zeireis K, Gawlik I, J. Med. Chem 37, 1660-1669 (1994). Specifically, the HaCaT cells were incubated with the test compounds (2 microM) for four hours at 37° C. Extracellular LDH activity was measured using the UV method with pyruvate and NADH and is expressly in mU/ml. Appropriate controls with the vehicle were performed (P<0.01; N=3, SD<10%).
Geisel J.; Mahrle, G. "Lactate dehydrogenase release as an indicator of dithranol-induced membrane injury in cultured human keratinocytes", Arch. Dermatol. Res., 282, 325-329 (1990)). Cytotoxicity against cell cultures by the potent cell growth inhibitors was assessed by the activity of lactate dehydrogenase (LDH) activity release into the culture medium. The release of LDH is commonly used as an indicator of plasma membrane damage.

Series [3] can be described thus: Degradation of 2-deoxy-D-ribose (hydroxyl radical formation). How it is done: This assay followed generally the procedures of Gutteridge, J. M. C., "Reactivity of Hydroxyl and Hydroxyl-Like Radicals Discriminated by Release of Thiobarbituric Acid-Reactive Material from Deoxy Sugars, Nucleosides and Benzoate", Biochem. J., 224, 761-767 (1984) and of Laughton, M. J. et al., "Antioxidant and Prooxidant Actions of the Plant Phenolics Quercetin, Gossypol and Myricetin", Biochem. Pharmacol., 38, 2859-2865 (1989). The following reagents were added to glass tubes in the order and at the final concentrations stated. 0.3 ml KH2 PO4 -KOH buffer, pH 7.4 (30 mM), 0.2 ml H2 O bidist., 0.2 ml 2-deoxy-D-ribose (2 mM), 0.2 ml FeCl3 .cndot.6 H2 O (0.1 mM), 0.1 ml anthracenone derivative (75 μM). Stock solutions of the compounds were made up fresh before use. Appropriate blanks and controls with the vehicle (acetonitrile) were conducted. The final reaction volumes were standardized to 1.0 ml. The reaction mixtures were incubated for 2 h at 37° C. in a shaking water bath. 1.0 ml of 2.8% (w/v) trichloroacetic acid and 1.0 ml of 1% (w/v in 0.05 N NaOH) 2-thiobarbituric acid (TBA) were added, and the samples were heated at 100° C. for 15 min and then cooled in an ice bath (5 min). Then 2.0 ml of the reaction mixtures were treated with 0.05 ml of 36% (w/v) HCl and 2.0 ml of 1-butanol and the mixtures were vigorously shaken in a vortex mixer (Heidolph) for 15 s. The organic layer was separated by centrifugation at 3000 rpm (15 min) and the absorbance at 532 nm was measured against butanol. […]
The biological assay methods were as follows: LDH release as described in Muller K, Huang H-S, Wiegrebe W, J. Med. Chem. 39, 3132-3138 (1996); bovine PMNL 5-LO assay as described in Muller K, Gurster D, Piwek S, Wiegrebe W, J. Med. Chem. 36, 4099-4107 (1993); and degradation of 2-deoxy-D-ribose as described in Muller K, Gurster D, Biochem. Pharmacol. 46, 1695-1704 (1993). […] Extracellular LDH activity was measured using the UV method with pyruvate and NADH and is expressly in mU/ml. […]

The subject of series [4] is HaCaT cells. Put plainly: HaCaT keratinocyte proliferation assay. It counts as cell-based. Particulars: Homo sapiens.
Excerpt: as §1

In series [5] the test system is psoriasis. Particulars: in vivo; cited from earlier work.
For series [6] the following is noted: octanol-water; cited from earlier work.

Like-named read-outs stand apart in the source and are kept apart here.

Consider seven compounds from US5952390A, “10-substituted 1,8-dihydroxy-9(10H) anthracenone pharmaceuticals” (Teva Pharmaceutical Industries Ltd., priority 1998, dated 1999).

Regarding `CC(CCC(=O)C1c2cccc(O)c2C(=O)c2c(O)cccc21)c1ccccc1` (racemic) [Compound Iw, (R,S)-1,8-dihydroxy-10-(1-oxo-4-phenylpentyl)-9(10H)-anthracenone], the IC50 worked out at 300 nM in series [1] (Table V, bovine PMNL) and 800 nM in series [4] (Table V, footnotes same as in Example 8, read-out: AA IC50 (antiproliferative activity)). Moreover, in series [2] (Table V, 2 μM test compound (Example 8)), the LDH release is listed as 171 mU. The “DD(OH), deoxyribose degradation” value in series [3] (Table V, footnotes same as in Example 8) is on record as < 0.3 μmol of malondialdehyde/mmol o.
On to `CC(Cc1ccc(O)c(O)c1)C(C)Cc1ccc(O)c(O)c1` (centres unmarked) [Nordihydroguaiaretic acid (NDGA), Nordihydroguaiaretic acid], for which the IC50 in series [1] is 400 nM.
For the compound `CC(=O)Oc1cccc2cc3cccc(OC(C)=O)c3c(OC(C)=O)c12` [triacetoxyanthracene], in series [1] (at 30 μM, bovine PMNL), the “inhibition at 30 µM” value was found to be 15%.
On to `O=C1c2ccccc2Cc2cccc(O)c21` [1-hydroxy-9(10H)-anthracenone], for which, in series [5], the “antipsoriatic efficacy, in words” value is given as “effective in the treatment of psoriasis”.
Regarding `O=C1c2c(O)cccc2C(C(=O)CCCc2ccccc2)c2cccc(O)c21` [Ip, 1,8-Dihydroxy-10-(1-oxo-4-phenylbutyl)-9(10H)-anthracenone], the “effectiveness as inhibitor of lipoxygenase relative to anthralin” value in series [1] (compared with anthralin) is on record as around 100 times.
Take `c1ccc2ccccc2c1` [naphthalene]: the “log P (known values of calibration compounds)” value in series [6] is on record as 3.44.
For `Cc1ccc(CC(=O)C2c3cccc(O)c3C(=O)c3c(O)cccc32)cc1` [Compound Iv, 1,8-dihydroxy-10-[2-(4-methylphenyl)-1-oxoethyl]-9(10H)-anthracenone], the IC50 worked out at 600 nM in series [1] and 700 nM in series [4] (Table IV, N = 3, P < 0.01, read-out: AA IC50 (antiproliferative activity)). In series [2] (2 microM, 37° C., four hours), the “LDH release versus vehicle control, in words” value is on record as “not significantly different as compared to vehicle controls”. The LDH release in series [2] (Table IV, 2 μM test compound, N = 3, SD < 10%) is reported as 145 mU. In series [3] (Table IV, released by 75 μm test compound (so in the source)), the “DD(OH), deoxyribose degradation” value is listed as < 0.3 μmol of malondialdehyde/mmol o.
